Several values for one entry are separate records, joined by “and”; a condition that tells them apart may be missing. Equal entries are not always repeated. Where two headings read alike, the source gives them in different places.
Tests used:
VIM-38 = target: T1, VIM-38 (Pseudomonas aeruginosa, UniProt A0A0F7KYQ8, A128K/A265V/E202A/H201L/K257T/S205R); test: Steady-state kinetics of β-lactam substrate hydrolysis; format: biochemical; conditions: 50 mM HEPES pH 7.2, apparent for ampicillin and ceftazidime; for Km: read-out: Mean Km ± SD VIM-38
T1 construct: The N- and C- terminal residues of the mature enzymes are labelled 26; His6 with HRV3C cleavage site (pET-28a) (N, cleaved yes); made in house; host or cells: E. coli BL21(DE3)
Protocol: (§1) The hydrolysis of a representative panel of β-lactam substrates was monitored at their respective absorbance wavelengths. The wavelengths and extinction coefficients used were previously described ([34]). The assays were carried out using 50 mM HEPES buffer (pH 7.2) supplemented with 1 μg/ml bovine serum albumin (BSA), 1 μM ZnSO4, and 0.01% Triton X-100. In the case of VIM-1, C-terminally His6-tagged VIM-1 was used for kinetic analyses. Note that no differences were observed between the activities of untagged VIM-1 and C-terminally His6-tagged VIM-1 for the selected antibiotics (data not shown). The initial rates were obtained from the changes in absorbance at various substrate concentrations. Steady-state kinetic parameters (Km and kcat) were determined by fitting the initial velocity data to the Michaelis-Menten equation using GraphPad Prism 5.01 software (see Table S4 in the supplemental material).

VIM-5 [1] = target: T2, VIM-5 (Pseudomonas aeruginosa, UniProt A0A0F7KYQ8, A128K/E202A/H201L/K257T/S205R); test: as above; format: biochemical; conditions: for kcat VIM-5 / Km: 50 mM HEPES pH 7.2, apparent for ampicillin and ceftazidime; for Km: read-out: Mean Km ± SD VIM-5
T2 construct: His6 with HRV3C cleavage site (pET-28a) (N, cleaved yes); made in house; host or cells: E. coli BL21(DE3)
Protocol: as §1

VIM-1 [2] = target: T3, VIM-1 (Pseudomonas aeruginosa, UniProt A0A0F7KYQ8); test: as above; format: biochemical
T3 construct: The N- and C- terminal residues of the mature enzymes are labelled 26; made in house
Protocol: as §1

VIM-2 [3] = target: T4, VIM-2 (Escherichia coli, UniProt Q5U7L7); format: biochemical
T4 construct: His6 (N, cleaved yes); made in house
Protocol: as §1

VIM-1 [4] = target: T3, VIM-1; conditions: previous studies ref Franceschini et al. (4), cited from earlier work; for Km: read-out: Km VIM-1 (previous study)
VIM-2 [5] = tested on: VIM-2; parameters: method as in Poirel et al. (5); conditions: previous studies ref Poirel et al. (5), cited from earlier work; for Km: read-out: Km VIM-2 (previous study)
VIM-5 [6] = tested on: VIM-5; parameters: method as in Garcar et al. (6); conditions: previous studies ref Garcar et al. (6), cited from earlier work; for Km: read-out: Km VIM-5 (previous study)
[7] = tested on: CC(=O)OCC1=C(C(=O)O)N2C(=O)[C@@H](NC(=O)Cc3cccs3)[C@H]2SC1; test: purified protein, by the assay type; format: biochemical; conditions: other: 50 mM HEPES pH 7.2, apparent for ampicillin and ceftazidime
Protocol: as §1

[8] = tested on: CC(C)(O/N=C(\C(=O)N[C@@H]1C(=O)N2C(C(=O)[O-])=C(C[n+]3ccccc3)CS[C@H]12)c1csc(N)n1)C(=O)O; test: purified protein, by the assay type; format: biochemical; conditions: other: 50 mM HEPES pH 7.2, apparent for ampicillin and ceftazidime
Protocol: as §1

[9] = tested on: CO[C@@]1(NC(=O)Cc2cccs2)C(=O)N2C(C(=O)O)=C(COC(N)=O)CS[C@@H]21; test: purified protein, by the assay type; format: biochemical; conditions: other: 50 mM HEPES pH 7.2, apparent for ampicillin and ceftazidime
Protocol: as §1

[10] = tested on: C[C@@H](O)[C@H]1C(=O)N2C(C(=O)O)=C(SCCN=CN)C[C@H]12; test: purified protein, by the assay type; format: biochemical; conditions: other: 50 mM HEPES pH 7.2, apparent for ampicillin and ceftazidime
Protocol: as §1

[11] = tested on: C[C@@H](O)[C@H]1C(=O)N2C(C(=O)O)=C(S[C@@H]3CN[C@H](C(=O)N(C)C)C3)[C@H](C)[C@H]12; test: purified protein, by the assay type; format: biochemical; conditions: other: 50 mM HEPES pH 7.2, apparent for ampicillin and ceftazidime
Protocol: as §1

[12] = tested on: O=C(Cc1cccs1)N[C@@H]1C(=O)N2C(C(=O)O)=C(/C=C/c3ccc([N+](=O)[O-])cc3[N+](=O)[O-])CS[C@H]12; test: purified protein, by the assay type; format: biochemical; conditions: other: 50 mM HEPES pH 7.2, apparent for ampicillin and ceftazidime
Protocol: as §1

[13] = tested on: O=C(Cc1cccs1)N[C@@H]1C(=O)N2C(C(=O)O)=C(/C=C/c3ccc([N+](=O)[O-])cc3[N+](=O)[O-])CS[C@H]12; test: Nitrocefin hydrolysis kinetics before thermal denaturation and after refolding; format: biochemical; conditions: other: nitrocefin hydrolysis
Protocol: Circular dichroism (CD) analyses were carried out using a Chirascan CD spectrophotometer (Applied Photophysics) equipped with a Peltier temperature-controlled cell holder. CD measurements were collected in the range of 185 to 260 nm; spectra were baseline corrected and smoothed using a Savitzky-Golay filter. Data were normalized at 207 nm to account for differences in protein concentrations ([38]), and the estimation of secondary structure content was performed with Dichro Web ([39]) using the CONTIN Analysis Programme (reference set 6) ([40]). Melting temperatures (Tm) of the recombinant enzymes were determined by monitoring temperature-induced changes in the CD signal at 222 nm. The temperature was increased by 1°C per min, and the CD signal was recorded at temperatures ranging from 25°C to 92°C. The samples were then cooled from 92°C to 25°C at the same rate, and a CD spectrum of the refolded proteins was determined. The activity of the enzymes was recorded before thermal denaturation and after refolding by monitoring nitrocefin hydrolysis. The thermal denaturation data were fitted to a Boltzmann sigmoidal curve by using GraphPad Prism 5.0 software. CD spectra and thermal denaturation curves are shown in Fig. 2 and in Tables S2 and S3 in the supplemental material.

[14] = tested on: CC(=O)OCC1=C(C(=O)O)N2C(=O)[C@@H](NC(=O)Cc3cccs3)[C@H]2SC1; test: Steady-state kinetics of β-lactam substrate hydrolysis; format: biochemical; conditions: other: C-terminally His6-tagged VIM-1, 50 mM HEPES pH 7.2, apparent for ampicillin and ceftazidime
Protocol: as §1

[15] = tested on: CC(C)(O/N=C(\C(=O)N[C@@H]1C(=O)N2C(C(=O)[O-])=C(C[n+]3ccccc3)CS[C@H]12)c1csc(N)n1)C(=O)O; test: as above; format: biochemical; conditions: other: C-terminally His6-tagged VIM-1, 50 mM HEPES pH 7.2, apparent for ampicillin and ceftazidime
Protocol: as §1

[16] = tested on: CO[C@@]1(NC(=O)Cc2cccs2)C(=O)N2C(C(=O)O)=C(COC(N)=O)CS[C@@H]21; test: as above; format: biochemical; conditions: other: C-terminally His6-tagged VIM-1, 50 mM HEPES pH 7.2, apparent for ampicillin and ceftazidime
Protocol: as §1

[17] = tested on: C[C@@H](O)[C@H]1C(=O)N2C(C(=O)O)=C(SCCN=CN)C[C@H]12; test: as above; format: biochemical; conditions: other: C-terminally His6-tagged VIM-1, 50 mM HEPES pH 7.2, apparent for ampicillin and ceftazidime
Protocol: as §1

[18] = tested on: C[C@@H](O)[C@H]1C(=O)N2C(C(=O)O)=C(S[C@@H]3CN[C@H](C(=O)N(C)C)C3)[C@H](C)[C@H]12; test: as above; format: biochemical; conditions: other: C-terminally His6-tagged VIM-1, 50 mM HEPES pH 7.2, apparent for ampicillin and ceftazidime
Protocol: as §1

[19] = tested on: O=C(Cc1cccs1)N[C@@H]1C(=O)N2C(C(=O)O)=C(/C=C/c3ccc([N+](=O)[O-])cc3[N+](=O)[O-])CS[C@H]12; test: as above; format: biochemical; conditions: other: C-terminally His6-tagged VIM-1, 50 mM HEPES pH 7.2, apparent for ampicillin and ceftazidime
Protocol: as §1

[20] = C-terminally His6-tagged VIM-1; 50 mM HEPES pH 7.2; apparent for ampicillin and ceftazidime
[21] = 50 mM HEPES pH 7.2; apparent for ampicillin and ceftazidime

Compound: CC(=O)OCC1=C(C(=O)O)N2C(=O)[C@@H](NC(=O)Cc3cccs3)[C@H]2SC1 [Cephalothin]
- kcat VIM-38 (VIM-38): 120 s⁻¹
- Km (VIM-38): 60 ± 8 µM
- kcat VIM-5 (VIM-5 [1]): 200 s⁻¹
- Km (VIM-5 [1]): 100 ± 8 µM

Compound: CC(C)(O/N=C(\C(=O)N[C@@H]1C(=O)N2C(C(=O)[O-])=C(C[n+]3ccccc3)CS[C@H]12)c1csc(N)n1)C(=O)O [Ceftazidime]
- kcat VIM-1 (VIM-1 [2]; [20]): 3 s⁻¹
- kcat VIM-38 (VIM-38): 4 s⁻¹
- Km (VIM-38): 430 ± 140 µM
- kcat VIM-5 (VIM-5 [1]): 4 s⁻¹
- Km (VIM-5 [1]): 340 ± 80 µM
- fold-higher hydrolysis efficiency by VIM-5 than previously reported (VIM-5 [1]; this study versus previously reported ([26])): 10 fold
- kcat VIM-2 (VIM-2 [3]; [21]): 2 s⁻¹
- kcat VIM-1 (previous study) (VIM-1 [4]): 60 s⁻¹
- Km (VIM-1 [4]): 794 µM
- kcat VIM-2 (previous study) (VIM-2 [5]): 89 s⁻¹
- Km (VIM-2 [5]): 98 µM
- kcat VIM-5 (previous study) (VIM-5 [6]): 0.2 s⁻¹
- Km (VIM-5 [6]): 149 µM

Compound: VIM-2 (Escherichia coli)
- Km [7]: 50 ± 6 µM
- kcat [7]: 210 s⁻¹
- kcat/Km [7]: 4.2e+06 M⁻¹ s⁻¹
- Km [8]: 120 ± 20 µM
- kcat [8]: 2 s⁻¹
- kcat/Km [8]: 20000 M⁻¹ s⁻¹
- Km [9]: 40 ± 10 µM
- kcat [9]: 50 s⁻¹
- kcat/Km [9]: 1.3e+06 M⁻¹ s⁻¹
- Km [10]: 33 ± 4 µM and 30 ± 4 µM
- kcat [10]: 95 s⁻¹ and 100 s⁻¹
- kcat/Km [10]: 3.3e+06 M⁻¹ s⁻¹
- Km [11]: 20 ± 4 µM
- kcat [11]: 7 s⁻¹
- kcat/Km [11]: 300000 M⁻¹ s⁻¹
- Km [12]: 50 ± 5 µM
- kcat [12]: 510 s⁻¹
- kcat/Km [12]: 1.02e+07 M⁻¹ s⁻¹
- Km ([13]; after refolding): 15 ± 1 µM
- kcat ([13]; after refolding): 130 s⁻¹
- kcat/Km ([13]; after refolding): 8.7e+06 M⁻¹ s⁻¹

Compound: VIM-1 (Pseudomonas aeruginosa PAO1)
- Km [14]: 140 ± 10 µM
- kcat [14]: 450 s⁻¹
- kcat/Km [14]: 3.2e+06 M⁻¹ s⁻¹
- Km [15]: 180 ± 60 µM
- kcat [15]: 3 s⁻¹
- kcat/Km [15]: 20000 M⁻¹ s⁻¹
- Km [16]: 170 ± 50 µM
- kcat [16]: 30 s⁻¹
- kcat/Km [16]: 200000 M⁻¹ s⁻¹
- Km [17]: 60 ± 10 µM
- kcat [17]: 30 s⁻¹
- kcat/Km [17]: 500000 M⁻¹ s⁻¹
- Km [18]: 130 ± 20 µM
- kcat [18]: 50 s⁻¹
- kcat/Km [18]: 400000 M⁻¹ s⁻¹
- Km [19]: 15 ± 1 µM
- kcat [19]: 130 s⁻¹
- kcat/Km [19]: 8.7e+06 M⁻¹ s⁻¹
- Km ([13]; after refolding): 26 ± 3 µM
- Km ([13]; pre-heating): 20 ± 2 µM
- kcat ([13]; pre-heating): 7 s⁻¹
- kcat/Km ([13]; pre-heating): 300000 M⁻¹ s⁻¹

Compound: CC1(C)S[C@@H]2[C@H](NC(=O)[C@H](N)c3ccccc3)C(=O)N2[C@H]1C(=O)O [Ampicillin]
- kcat VIM-1 (VIM-1 [2]; [20]): 122 s⁻¹ and 120 s⁻¹
- Km (VIM-1 [2]; C-terminally His6-tagged VIM-1; 50 mM HEPES pH 7.2; apparent for ampicillin and ceftazidime; read-out: Mean Km ± SD VIM-1): > 1000 µM
- Km (VIM-1 [2]; read-out: Mean Km ± SD VIM-1; C-terminally His6-tagged VIM-1; 50 mM HEPES pH 7.2; apparent for ampicillin and ceftazidime): > 300 µM
- kcat VIM-38 (VIM-38): 170 s⁻¹
- Km (VIM-38): 380 ± 80 µM
- Km (VIM-38; listed as ampicillin): > 300 µM
- kcat VIM-5 (VIM-5 [1]): 230 s⁻¹
- Km (VIM-5 [1]): > 1000 µM
- Km (VIM-5 [1]; listed as ampicillin): > 300 µM
- kcat VIM-2 (VIM-2 [3]; [21]): 180 s⁻¹
- Km (VIM-2 [3]; 50 mM HEPES pH 7.2; apparent for ampicillin and ceftazidime; read-out: Mean Km ± SD VIM-2): > 500 µM
- Km (VIM-2 [3]; read-out: Mean Km ± SD VIM-2; 50 mM HEPES pH 7.2; apparent for ampicillin and ceftazidime): > 300 µM
- kcat VIM-1 (previous study) (VIM-1 [4]): 37 s⁻¹
- Km (VIM-1 [4]): 917 µM
- kcat VIM-5 (previous study) (VIM-5 [6]): 14 s⁻¹

Compound: C[C@@H](O)[C@H]1C(=O)N2C(C(=O)O)=C(S[C@@H]3CN[C@H](C(=O)N(C)C)C3)[C@H](C)[C@H]12 [Meropenem]
- kcat VIM-1 (VIM-1 [2]; [20]): 50 s⁻¹
- Km for VIM-1 fold higher than that for VIM-2 (VIM-1 [2]; VIM-1 versus VIM-2): > 6 fold
- kcat for VIM-1 fold higher than those for VIM-2 (VIM-1 [2]; VIM-1 versus VIM-2): > 7 fold
- kcat VIM-38 (VIM-38): 10 s⁻¹
- Km (VIM-38): 30 ± 4 µM
- kcat VIM-5 (VIM-5 [1]): 16 s⁻¹ and 20 s⁻¹
- Km (VIM-5 [1]): 70 ± 10 µM
- kcat VIM-2 (VIM-2 [3]; [21]): 7 s⁻¹
- kcat VIM-1 (previous study) (VIM-1 [4]): 13 s⁻¹
- Km (VIM-1 [4]): 48 µM
- kcat VIM-2 (previous study) (VIM-2 [5]): 1.4 s⁻¹
- Km (VIM-2 [5]): 5 µM
- kcat VIM-5 (previous study) (VIM-5 [6]): 2.4 s⁻¹
- Km (VIM-5 [6]): 49 µM
